Experimental data: patent US20260226037A1, “MICROTUBULE TARGETING AGENTS” (ARIEL SCIENTIFIC INNOVATIONS LTD., priority 2022, published 2026)

How the values were obtained:
RPMI 8226 cells = assay: XTT cytotoxicity, RPMI 8226; type: cell-based; settings: Homo sapiens; RPMI 8226, multiple myeloma, non-resistant; read-out: IC50
Description: (§1) The cytotoxic activity of the novel family was evaluated against various tumor cells, including myeloma cells, acute lymphoblastic leukemia cells, acute monocytic leukemia cells, chronic myelogenous leukemia cells, pancreatic cancer cells, breast cancer cells, uterine sarcoma cells, cervix adenocarcinoma cells, ovary cancer cells, melanoma cells, osteosarcoma cells, prostate cancer cells, lung cancer cells, neuroblastoma cells and colorectal adenocarcinoma cells by XTT assay.

RPMI-DOX40 cells = assay: XTT cytotoxicity, RPMI-DOX40; type: cell-based
Description: as §1

RPMI-LR5 cells = assay: XTT cytotoxicity, RPMI-LR5; type: cell-based
Description: as §1

RPMI-MR20 cells = assay: XTT cytotoxicity, RPMI-MR20; type: cell-based
Description: as §1

MM1.S cells = assay: XTT cytotoxicity, MM1.S; type: cell-based; settings: Homo sapiens, multiple myeloma, non-resistant, read-out: IC50
Description: as §1

MM1.R cells = assay: XTT cytotoxicity, MM1.R; type: cell-based
Description: as §1

NALM6 cells = assay: XTT cytotoxicity, NALM6; type: cell-based; settings: Homo sapiens, NALM-6; NALM6, acute lymphoblastic leukemia, non-resistant; read-out: IC50
Description: as §1
(§2) Most tubulin-binding anticancer drugs currently used in the clinic are substrates for Pgp effux pump. […] The inventors tested the viability of NALM6 acute lymphoblastic leukemia cell line (ALL) and its corresponding doxorubicin resistant N6/ADR cell line that overexpress Pgp glycoprotein and has cross-resistance to vincristine.

N6/ADR cells = assay: XTT cytotoxicity, N6/ADR; type: cell-based
Description: as §1, §2

MCF7 cells = assay: XTT cytotoxicity, MCF7; type: cell-based; settings: Homo sapiens; MCF7, breast adenocarcinoma, non-resistant
Description: as §1

MCF7-VP cells = assay: XTT cytotoxicity, MCF7-VP; type: cell-based
Description: as §1

MES-SA cells = assay: XTT cytotoxicity, MES-SA; type: cell-based; settings: Homo sapiens, poorly differentiated uterine sarcoma, non-resistant
Description: as §1

MES-SA/DX5 cells = assay: XTT cytotoxicity, MES-SA/DX5; type: cell-based
Description: as §1

purified tubulin = assay: Tubulin polymerization, cell-free assay; type: biochemical; settings: tubulin 2.00 mg/mL; 1, 15 and 30 μM; 37° C., 100 min; vs vehicle
Description: The effect of the compounds on their ability to inhibit tubulin polymerization, was tested against a vehicle control by evaluating polymerization of purified tubulin in a cell-free assay where tubulin (2.00 mg/mL) was exposed to vehicle control or 1, 15 and 30 μM of the compounds (n=2). Polymerizations were tracked by an increase in fluorescence excitation wavelength is 340-360 nm and emission wavelength at 410-460 nm. Fluorescence was monitored at 37° C. every 30 sec for 100 min.

[1] = system: colchicine binding site on tubulin protein; assay: EBI competition assay, RPMI-8226 cells; type: cell-based; settings: RPMI-8226 living cells
RPMI8226 cells = assay: Cell cycle distribution by flow cytometry; type: cell-based; settings: 6 hours; IC50, IC50x2.5 and IC50x5 concentrations
Description: Cell cycle arrest is a shared consequence of MTAs treatment. The effects of cell cycle distribution were determined in RPMI8226 cells treated for 6 and 18 hours with a range of concentrations of the molecules. The cells were stained with propidium iodide and cell cycle distribution was measured using a cytoFLEX flow cytometer.

How did the IC50 (RPMI 8226 cells) turn out when `Cc1c(C(=O)OC2CCCC2)[nH]c2c1C(=O)CC(c1ncco1)C2` (stereo not shown) [SMS101, cyclopentyl 3-methyl-6-(oxazol-2-yl)-4-oxo-4,5,6,7-tetrahydro-1H-indole-2-carboxylate] was run?
Its IC50 is 90 nM.

What about the IC50 (RPMI-DOX40 cells; RPMI-DOX40, multiple myeloma, P-gp overexpression, read-out: IC50) of the same compound?
The IC50 was 77 nM.

What about the “IC50 ratio between resistant and non-resistant cells” value (RPMI-DOX40 cells; RPMI-DOX40 / RPMI 8226) of the same compound?
The value was 0.856.

And the IC50 (RPMI-LR5 cells; RPMI-LR5, multiple myeloma, melphalan resistant, read-out: IC50)?
The IC50 was 73 nM.

What about the “IC50 ratio between resistant and non-resistant cells” value (RPMI-LR5 cells; RPMI-LR5 / RPMI 8226) of the same compound?
Its value is 0.811.

And the IC50 (RPMI-MR20 cells; RPMI-MR20, mitoxantrone resistant, read-out: IC50)?
The IC50 was 99 nM.

And the “IC50 ratio between resistant and non-resistant cells” value (RPMI-MR20 cells; RPMI-MR20 / RPMI 8226)?
Its value is 1.100.

And the IC50 (MM1.S cells)?
The IC50 was 129 nM.

What about the “IC50 ratio between resistant and non-resistant cells” value (MM1.R cells; MM1.R / MM1.S) of the same compound?
The value was 3.953.

And the IC50 (MM1.R cells; MM.1R, MM1.R, multiple myeloma, dexamethasone resistant, read-out: IC50)?
Its IC50 is 510 nM.

What about the IC50 (NALM6 cells) of the same compound?
Its IC50 is 48 nM.

What about the “IC50 ratio between resistant and non-resistant cells” value (N6/ADR cells; N6/ADR / NALM6) of the same compound?
The value was 0.875.

What about the IC50 (N6/ADR cells; N6/ADR, acute lymphoblastic leukemia, P-gp overexpression, read-out: IC50) of the same compound?
Its IC50 is 42 nM.

And the IC50 (MCF7 cells)?
Its IC50 is 11900 nM.

What about the IC50 (MCF7-VP cells; Homo sapiens, MCF7-VP, breast adenocarcinoma, MRP overexpression) of the same compound?
Its IC50 is 351 nM.

What about the “IC50 ratio between resistant and non-resistant cells” value (MCF7-VP cells; MCF7-VP / MCF7) of the same compound?
Its value is 0.029.

And the IC50 (MES-SA cells)?
Its IC50 is 186 nM.

What about the IC50 (MES-SA/DX5 cells; Homo sapiens, MES-SA/DX5, uterine sarcoma, P-gp overexpression) of the same compound?
The IC50 was 213 nM.

And the “IC50 ratio between resistant and non-resistant cells” value (MES-SA/DX5 cells; MES-SA/DX5 / MES-SA)?
Its value is 1.145.

And the “rate of tubulin polymerization” value (purified tubulin)?
The value was “inhibited the rate of tubulin polymerization in a concentration-dependent manner”.

What about the “prevention of covalent binding of EBI to the colchicine binding site” value [1] of the same compound?
The value was “prevented the covalent binding of EBI to the colchicine binding site”.

And the cell cycle arrest (RPMI8226 cells)?
The cell cycle arrest was “cell cycle arrest in G2M phase”.
